Laboratory results from US6953808B2, “Method for treating gastric disorders using optically pure (−) pantoprazole” (Sepracor Inc., priority 1993, dated 2005).

What was measured:
[1] = target: H^+,K^+-ATPase (Homo sapiens, UniProt P20648); details: cited from earlier work
[2] = test system: rats; details: two year; cited from earlier work
[3] = test system: exogenously stimulated acid secretion; details: secretion induced by a variety of agonists; cited from earlier work
[4] = test system: hepatic drug metabolizing enzyme systems; details: intact rats and rat microsomal enzyme preparations; compared to omeprazole; cited from earlier work
[5] = test system: endogenous acid secretion; details: pylorus-ligated rats, cited from earlier work
[6] = test system: mice; assay: Acute toxicity (LD50) in mice; assay type: in vivo
[7] = test system: endogenous acid secretion; assay: Inhibition of endogenous acid secretion in pylorus-ligated rats; assay type: in vivo, rat; details: ratio of doses for 50% reduction
Text: This may increase pantoprazole's selectivity for the acid secreting parietal cells, where low pH conditions exist in the intracellular canaliculi. In intact animals, pantoprazole is active in inhibiting gastric acid secretion in both rats and dogs. Specifically, the intravenous and oral doses required to reduce endogenous acid secretion in pylorus-ligated rats by 50% are in the 1-3 μmole/kg range. […] Racemic pantoprazole is also effective at doses less than 5 μmole/kg in inhibiting exogenously stimulated acid secretion induced by a variety of agonists, indicating general activity of the drug in inhibiting acid secretion.

[8] = test system: duodenal ulcers; details: patients with duodenal ulcers, after four weeks of 20 to 80 mg per day; cited from earlier work
[9] = test system: serum gastrin; details: humans, short-term administration; cited from earlier work
[10] = test system: rat; details: cited from earlier work
[11] = test system: mice; details: cited from earlier work
[12] = neutral and moderately acidic conditions; compared with omeprazole; cited from earlier work
[13] = test system: beta-adrenergic; details: cited from earlier work

H^+,K^+-ATPase, sequence (P20648 whole entry): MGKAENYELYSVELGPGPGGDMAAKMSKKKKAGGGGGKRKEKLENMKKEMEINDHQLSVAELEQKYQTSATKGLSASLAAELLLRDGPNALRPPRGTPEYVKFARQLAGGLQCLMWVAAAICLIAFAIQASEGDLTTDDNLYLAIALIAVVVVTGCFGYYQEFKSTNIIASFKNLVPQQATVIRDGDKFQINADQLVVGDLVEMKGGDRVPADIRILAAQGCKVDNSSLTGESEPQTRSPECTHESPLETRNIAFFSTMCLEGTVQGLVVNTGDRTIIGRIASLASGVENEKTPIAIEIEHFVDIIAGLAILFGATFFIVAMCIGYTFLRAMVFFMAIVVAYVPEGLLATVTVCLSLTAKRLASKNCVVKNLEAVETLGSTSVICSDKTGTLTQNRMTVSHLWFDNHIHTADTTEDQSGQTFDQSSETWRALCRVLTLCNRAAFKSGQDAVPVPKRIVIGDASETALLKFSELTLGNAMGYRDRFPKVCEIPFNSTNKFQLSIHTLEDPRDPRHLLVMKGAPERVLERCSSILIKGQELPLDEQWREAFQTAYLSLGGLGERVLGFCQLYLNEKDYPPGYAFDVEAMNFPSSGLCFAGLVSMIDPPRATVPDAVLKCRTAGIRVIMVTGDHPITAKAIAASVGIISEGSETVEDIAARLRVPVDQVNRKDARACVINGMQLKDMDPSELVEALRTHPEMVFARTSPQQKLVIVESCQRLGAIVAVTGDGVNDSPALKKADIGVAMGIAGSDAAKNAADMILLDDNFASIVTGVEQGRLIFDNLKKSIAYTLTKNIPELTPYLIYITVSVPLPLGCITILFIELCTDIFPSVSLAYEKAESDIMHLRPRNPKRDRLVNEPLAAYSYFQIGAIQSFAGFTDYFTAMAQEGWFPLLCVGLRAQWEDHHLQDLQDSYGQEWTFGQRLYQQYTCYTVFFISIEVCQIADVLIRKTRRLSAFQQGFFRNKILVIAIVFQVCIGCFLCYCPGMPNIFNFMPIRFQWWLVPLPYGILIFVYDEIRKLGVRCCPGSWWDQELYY
H^+,K^+-ATPase, sequence (P51164 whole entry partner): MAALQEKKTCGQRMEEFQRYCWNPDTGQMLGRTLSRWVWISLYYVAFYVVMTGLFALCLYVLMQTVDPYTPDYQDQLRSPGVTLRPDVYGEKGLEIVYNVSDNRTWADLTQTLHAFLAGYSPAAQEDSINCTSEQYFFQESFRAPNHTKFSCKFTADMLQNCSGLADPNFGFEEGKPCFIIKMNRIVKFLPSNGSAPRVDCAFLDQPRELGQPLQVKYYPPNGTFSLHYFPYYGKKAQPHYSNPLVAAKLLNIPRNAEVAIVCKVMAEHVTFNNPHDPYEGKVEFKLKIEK

COc1ccnc(C[S+]([O-])c2nc3cc(OC(F)F)ccc3[n-]2)c1OC.[Na+] (racemic) [Racemic pantoprazole sodium]
inhibition of H+,K+-ATPase [1]: potent, irreversible inhibitor

COc1ccnc(C[S+]([O-])c2nc3ccc(OC(F)F)cc3[nH]2)c1OC (racemic) [racemic pantoprazole]
finding in carcinogenicity study [2]: hepatocellular neoplasia
effective dose inhibiting exogenously stimulated acid secretion [3]: less than 5 μmole/kg
inhibition of hepatic drug metabolizing enzyme systems [4]: weaker inhibitor
intravenous dose required to reduce endogenous acid secretion by 50% ([5]; intravenous): 1 to 3 µmol/kg
oral dose required to reduce endogenous acid secretion by 50% ([5]; oral): 1 to 3 µmol/kg
p.o./i.v. LD50 ratio [6]: approximately 2
calculated oral/intravenous (p.o./i.v.) ratio [7]: approximately 2
ulcer healing [8]: 90-100%
fasting serum gastrin levels [9]: significantly elevated
oral LD50 ([10]; in vivo, po): > 2,467 μmol/kg
intravenous LD50 ([10]; intravenous): 632 µmol/kg
intravenous LD50 [11]: 975 µmol/kg
chemical stability [12]: more chemically stable

CC(C)NC[C@H](O)COc1cccc2ccccc12 [L-form of propranolol, propranolol]
potency relative to D-enantiomer [13]: 100 times
